# Reference: patent US9532990B2 (Zhejiang DTRM Biopharma Co. Ltd., priority 2014, dated 2017)
# Read-outs that look alike come from different tables or passages of the source.
# How the values were obtained:
# BTK wild type = BTK wild type (Homo sapiens (Human), UniProt Q06187); assay: Inhibition assay of BTK kinase activity (HTRF); type: biochemical
# Description: Inhibition Assay of BTK Kinase Activity:
# The enzyme reaction mixture of BTK wild type standard HTRF assay contained 1 nM BTK wild type, 1 μM biotin-TK1 peptide, and 30 μM ATP in a buffer. The enzyme reaction were carried out at room temperature for 60 minutes. […] The plates were incubated at room temperature for 60 minutes and then read in the Envision plate reader.
# TMD-8 lymphoma xenograft = TMD-8 lymphoma xenograft SCID mouse model; type: in vivo; conditions: BID, 14 days (FIG. 1); for Antitumor effect: Oral
# Description: Compounds (Compounds 45 and others) alone and its combinations were evaluated against tumor growth in xenograft models in female CB-17 SCID mice. The TMD-8, DoHH2, WSU-DLCL2 tumor cells were maintained in vitro as a suspension culture in RPMI-1640 medium supplemented with 10% heat inactivated fetal calf serum at 37° C. in an atmosphere of 5% CO2 in air. The tumor cells were routinely subcultured twice weekly. The cells growing in an exponential growth phase were harvested and counted for tumor inoculation. Each mouse was inoculated subcutaneously at the right flank with the tumor cells (10×10^6) in 0.2 ml of PBS with Matrigel (1:1) for tumor development. The treatments were started after the average tumor size reached approximately 100-200 mm^3. Each group consisted of 6-10 tumor-bearing mice. The testing article (vehicle, compound or combination) was orally administrated to the mice according to the predetermined doses for 14-days or 21-days. Animal body weight and tumor volume were measured every 2-or 3-days throughout the treatment.
# [1] = rats, 40 mg/kg, U.S. FDA NDA 205552 pharmacological review, cited from earlier work
# [2] = dogs, 24 mg/kg, U.S. FDA NDA 205552 pharmacological review, cited from earlier work
# [3] = all compounds with IC50 of less 10 nM, read-out: IC50 (BTK)
# Sequence of BTK wild type (Q06187 whole entry): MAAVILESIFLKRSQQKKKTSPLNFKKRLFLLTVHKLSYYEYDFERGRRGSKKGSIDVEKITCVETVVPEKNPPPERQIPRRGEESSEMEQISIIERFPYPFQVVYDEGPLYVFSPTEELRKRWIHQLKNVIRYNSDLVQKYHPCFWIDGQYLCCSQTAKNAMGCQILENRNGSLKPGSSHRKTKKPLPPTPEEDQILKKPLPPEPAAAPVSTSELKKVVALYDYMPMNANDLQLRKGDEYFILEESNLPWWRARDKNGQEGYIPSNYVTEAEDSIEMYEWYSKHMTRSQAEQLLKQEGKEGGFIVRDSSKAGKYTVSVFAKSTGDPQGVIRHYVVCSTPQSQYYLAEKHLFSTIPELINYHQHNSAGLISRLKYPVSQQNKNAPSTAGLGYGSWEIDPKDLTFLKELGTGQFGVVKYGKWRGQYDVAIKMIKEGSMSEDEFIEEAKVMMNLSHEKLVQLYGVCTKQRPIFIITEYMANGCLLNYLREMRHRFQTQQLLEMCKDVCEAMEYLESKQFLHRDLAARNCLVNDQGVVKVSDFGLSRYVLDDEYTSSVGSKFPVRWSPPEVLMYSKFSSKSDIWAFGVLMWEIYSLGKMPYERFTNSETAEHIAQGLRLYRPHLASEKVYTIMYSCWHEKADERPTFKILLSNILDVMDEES
SMILES,IC50 (BTK wild type; read-out: BTK IC50) [nM],also measured
"C=CC(=O)N1CCC[C@@H](n2nc(-c3ccc(Oc4c(F)c(F)cc(F)c4F)cc3F)c3c(N)ncnc32)C1 [Compound 33, 1-((R)-3-(4-amino-3-(2-fluoro-4-(2,3,5,6-tetrafluorophenoxy)phenyl)-1H-pyrazolo[3,4-d]pyrimidin-1-yl)piperidin-1-yl)prop-2-en-1-one]",2,"IC50 (BTK wild type; [3]): < 10 nM; Antitumor effect (TMD-8 lymphoma xenograft; 10 mg/kg): 56%; Antitumor effect (TMD-8 lymphoma xenograft; 30 mg/kg): 77%; TMD-8 tumor growth suppression (TMD-8 lymphoma xenograft; multiple doses, p.o.): significant TMD-8 tumor growth suppressions were dose-depended"
"C=CC(=O)N[C@H]1CC[C@@H](n2nc(-c3ccc(Oc4cccc(F)c4)cc3F)c3c(N)ncnc32)CC1 [Compound 13, N-((1s,4s)-4-(4-amino-3-(2-fluoro-4-(3-fluorophenoxy)phenyl)-1H-pyrazolo[3,4-d]pyrimidin-1-yl)cyclohexyl)acrylamide]",1,IC50 (BTK wild type; [3]): < 10 nM
"Nc1ncnc2c1c(-c1ccc(Oc3c(F)c(F)cc(F)c3F)cc1F)nn2[C@H]1CCCN(C(=O)CCl)C1 [Compound 100, 1-((S)-3-(4-amino-3-(2-fluoro-4-(2,3,5,6-tetrafluorophenoxy)phenyl)-1H-pyrazolo[3,4-d]pyrimidin-1-yl)piperidin-1-yl)-2-chloroethanone]",2,IC50 (BTK wild type; [3]): < 10 nM
"C=CC(=O)NCC1CCC(n2nc(-c3ccc(Oc4c(F)c(F)cc(F)c4F)cc3F)c3c(N)ncnc32)C1 (centres unmarked) [Compound 28, N-((3-(4-amino-3-(2-fluoro-4-(2,3,5,6-tetrafluorophenoxy)phenyl)-1H-pyrazolo[3,4-d]pyrimidin-1-yl)cyclopentyl)methyl)acrylamide]",7,
N#CN1CC[C@@H](n2nc(-c3ccc(Oc4c(F)c(F)cc(F)c4F)cc3F)c3c(N)ncnc32)C1 [Compound 118],57,
"C=CC(=O)NCC(C)n1nc(-c2ccc(Oc3c(F)c(F)cc(F)c3F)cc2F)c2c(N)ncnc21 (centres unmarked) [Compound 84, N-(2-(4-amino-3-(2-fluoro-4-(2,3,5,6-tetrafluorophenoxy)phenyl)-1H-pyrazolo[3,4-d]pyrimidin-1-yl)propyl)acrylamide]",16,
"Nc1ncnc2c1c(-c1ccc(Oc3c(F)c(F)cc(F)c3F)cc1F)nn2[C@@H]1CCN(C(=O)C(=O)C(F)(F)F)C1 [Compound 77, 1-((R)-3-(4-amino-3-(2-fluoro-4-(2,3,5,6-tetrafluorophenoxy)phenyl)-1H-pyrazolo[3,4-d]pyrimidin-1-yl)pyrrolidin-1-yl)-3,3,3-trifluoropropane-1,2-dione]",201,
"C=CC(=O)N1CC[C@@H](n2nc(-c3ccc(Oc4cccc(F)c4)cc3F)c3c(N)ncnc32)C1 [Compound 94, 1-((R)-3-(4-amino-3-(2-fluoro-4-(3-fluorophenoxy)phenyl)-1H-pyrazolo[3,4-d]pyrimidin-1-yl)pyrrolidin-1-yl)prop-2-en-1-one]",1,IC50 (BTK wild type; [3]): < 10 nM
"C=CC(=O)N[C@@H]1CC[C@@H](n2nc(-c3ccc(Oc4c(F)c(F)cc(F)c4F)cc3F)c3c(N)ncnc32)C1 [Compound 25, N-((1r,3r)-3-(4-amino-3-(2-fluoro-4-(2,3,5,6-tetrafluorophenoxy)phenyl)-1H-pyrazolo[3,4-d]pyrimidin-1-yl)cyclopentyl)acrylamide]",17,
"C=CC(=O)N1CCC(n2nc(-c3ccc(Oc4c(F)c(F)cc(F)c4F)cc3F)c3c(N)ncnc32)CC1 [Compound 27, 1-(4-(4-amino-3-(2-fluoro-4-(2,3,5,6-tetrafluorophenoxy)phenyl)-1H-pyrazolo[3,4-d]pyrimidin-1-yl)piperidin-1-yl)prop-2-en-1-one]",223,
"Nc1ncnc2c1c(-c1ccc(Oc3c(F)c(F)cc(F)c3F)cc1F)nn2[C@@H]1CCN(C(=O)CF)C1 [Compound 111, 1-((R)-3-(4-amino-3-(2-fluoro-4-(2,3,5,6-tetrafluorophenoxy)phenyl)-1H-pyrazolo[3,4-d]pyrimidin-1-yl)pyrrolidin-1-yl)-2-fluoroethanone]",43,
"C=CC(=O)N1CCCC(n2nc(-c3ccc(Oc4cccc(NS(C)(=O)=O)c4)cc3F)c3c(N)ncnc32)C1 (centres unmarked) [Compound 20, N-(3-(4-(1-(1-acryloylpiperidin-3-yl)-4-amino-1H-pyrazolo[3,4-d]pyrimidin-3-yl)-3-fluorophenoxy)phenyl)methanesulfonamide]",4,IC50 (BTK wild type; [3]): < 10 nM
"C/C=C(\C(=O)OC)C(=O)N1CCCC(n2nc(-c3ccc(Oc4c(F)c(F)cc(F)c4F)cc3F)c3c(N)ncnc32)C1 (centres unmarked) [Compound 48, (Z)-methyl 2-(3-(4-amino-3-(2-fluoro-4-(2,3,5,6-tetrafluorophenoxy)phenyl)-1H-pyrazolo[3,4-d]pyrimidin-1-yl)piperidine-1-carbonyl)but-2-enoate]",964,
"C=CC(=O)N1CCC[C@H](n2nc(-c3ccc(Oc4c(F)c(F)cc(F)c4F)cc3F)c3c(N)ncnc32)C1 [Compound 34, 1-((S)-3-(4-amino-3-(2-fluoro-4-(2,3,5,6-tetrafluorophenoxy)phenyl)-1H-pyrazolo[3,4-d]pyrimidin-1-yl)piperidin-1-yl)prop-2-en-1-one]",23,
"C=CS(=O)(=O)N1CCCC(n2nc(-c3ccc(C(=O)c4cccc(F)c4)cc3F)c3c(N)ncnc32)C1 (centres unmarked) [Compound 8, (4-(4-amino-1-(1-(vinylsulfonyl)piperidin-3-yl)-1H-pyrazolo[3,4-d]pyrimidin-3-yl)-3-fluorophenyl)(3-fluorophenyl)methanone]",2,
C=CC(=O)N1CCC[C@@H](n2nc(-c3ccc(Oc4ccccc4)cc3)c3c(N)ncnc32)C1 [ibrutinib],,"AUC (area under the curve) ([1]; female): 3300 ng·h/mL; AUC (area under the curve) ([1]; male): 1,000 h*ng/mL; AUC ([2]; female): 1,850 h*ng/mL; AUC ([2]; male): 1,780 h*ng/mL"
"Nc1ncnc2c1c(-c1ccc(Oc3c(F)c(F)cc(F)c3F)cc1F)nn2[C@@H]1CCN(C(=O)c2nc3ccccc3o2)C1 [Compound 110, ((R)-3-(4-amino-3-(2-fluoro-4-(2,3,5,6-tetrafluorophenoxy)phenyl)-1H-pyrazolo[3,4-d]pyrimidin-1-yl)pyrrolidin-1-yl)(benzo[d]oxazol-2-yl)methanone]",5270,
"CN/C(=C\[N+](=O)[O-])N1CCCC(n2nc(-c3ccc(Oc4c(F)c(F)cc(F)c4F)cc3F)c3c(N)ncnc32)C1 (centres unmarked) [Compound 55, 1-[3-[4-amino-3-[2-fluoro-4-(2,3,5,6-three-fluorophenoxy)phenyl]-1H-pyrazolo[3,4-d]pyrimidin-1-yl]-1-piperidinyl]-1-(methylamino)-2-nitro ethylene]",1740,
